The values below come from US12590054B2 (Board of Regents, The University of Texas System, priority 2021, dated 2026).

One series deals with naïve mice. The experiment in a line: Abuse liability, conditioned place preference (CPP) paradigm. The series is classed as in vivo, mouse. Particulars: 2-day conditioning. The protocol: Experimental approaches. […] Specifically, one day after measuring natural place preference, vehicle was be given in the morning, and the mouse was placed in its preferred chamber for 20 min. In the afternoon, test drugs were given, and the mouse was placed in its non-preferred chamber for 20 min. This conditioning procedure was repeated 2 times. One day after the last conditioning session, CPP for the drug-paired chamber was measured for 20 min.

Another series concerns human hepatic microsomes. The following applies: pooled human liver microsomes, 50-200 μM substrate, 20 min, 37° C. In general terms: Microsomes from liver hold many membrane-bound enzymes, among them those of drug oxidation.
A short description of series [1]: Tissue distribution after single i.v. injection in male CD-1 mice. Particulars: for rank order of the exposure of the organs to the parent drug: i.v. administration.
Series [2] relates to mice with plantar incision. The experiment in a line: Postoperative pain model (plantar incision), von Frey paw withdrawal. Particulars: for effect on postoperative mechanical hypersensitivity: post-operative treatment.
Procedure: (§1) Animal models of pain. To model postoperative pain in mice, plantar incision was performed under isoflurane anesthesia. Specifically, a 4-8 mm incision was made through the skin, fascia, and muscle of the plantar side of one hind paw, longitudinally starting from the proximal edge of the heel. The skin was apposed with sutures (Fine Science Tools, Foster City, CA). The suture was removed at the end of postoperative day 2. To model neuropathic pain in mice, a surgery was performed to ligate the fifth lumbar (L5) spinal nerve (spinal nerve ligation, SNL).
(§2) Behavioral testing. Mechanical pain sensitivity after plantar incision or SNL was assessed by measuring paw withdrawal behaviors in response to von Frey filament (VFF) probing. A mouse was placed in a plastic chamber on top of a mesh screen platform. The VFF of 0.98 mN was applied perpendicularly to the hind paw. […] The percent of withdrawal responses out of the ten trials was recorded.
(§3) Statistical analysis. We used a generalized linear mixed model to analyze the number of withdrawals out of 10 trials (binomial distribution) repeatedly measured at multiple time points (AR1 covariance structure) with random intercepts for subject (i.e., mouse) variances. Degrees of freedom were allowed to vary across tests by Satterthwaite approximation.
In series [3] the test system is mice with spinal nerve ligation (SNL). Briefly: Neuropathic pain model (spinal nerve ligation, SNL), von Frey paw withdrawal.
Procedure: as §1, §2, §3
The subject of the next series is Swiss mice. The following applies: intraperitoneally (i.p.); cited from earlier work.
The nature of series [4]: Plasma pharmacokinetics after single i.v. injection in male CD-1 mice. The following applies: parent drug in plasma, 2.0 mg/kg i.v.
The mark [5] stands for this setting: 3 mg/kg i.p., once daily for 4 days.

SMILES strings stand for the structures. Entries after “also recorded” stand apart in the source; their conditions may differ.

Procedure for human hepatic microsomes: The reaction was incubated for 20 min at 37° C. and terminated by the addition of 1.2 mL of cold acetonitrile.
Analytical method: An LC-MS/MS method for the quantification of EDDP, d3-EDDP and d6-EDDP was developed and validated. The samples were analyzed with an API 4000 triple quadrupole mass spectrometer coupled with an Agilent HPLC 1200 system (Applied Biosystems, Foster City, CA). […] Separation of EDDP, d3-EDDP and d6-EDDP was achieved by a Waters Symmetry C18 HPLC column at 45° C.

In the case of `[2H]C([2H])([2H])CC(=O)C(CC(C)N(C([2H])([2H])[2H])C([2H])([2H])[2H])(c1ccccc1)c1ccccc1` (racemic) [d9-methadone], the “conditioned place preference for the drug-paired chamber” value (shortened to “conditioned place preference”) in the series with naïve mice is on record as “did not develop conditioned place preference; also recorded: did not develop CPP; also recorded: did not show any apparent conditioned place preference”. Also, the “biotransformation (N-demethylation) rate compared to the non-deuterated substrate” value in the series with human hepatic microsomes was “further decreased the rate”. Further, the “rank order of the exposure of the organs to the parent drug” value in series [1] is recorded as “lungs>kidneys≈liver>spleen>heart>brain”. For the same compound, the Kp in series [1] (male, CD-1, mouse, in vivo, iv, 2 mg/kg) was found to be 0.35 ± 0.12. For the same compound, the “postoperative mechanical hypersensitivity vs methadone-treated mice, next day” value in series [2] (intra-operative treatment, 3 mg/kg i.p.) was “no difference”. Besides, the “postoperative mechanical hypersensitivity vs methadone-treated mice, day of surgery (2 hr, 4 hr)” value in series [2] (intra-operative treatment, 3 mg/kg i.p. before plantar incision) is “lower postoperative mechanical hypersensitivity”. The “development of analgesic tolerance” value in series [2] (once daily for 4 days, 3 mg/kg i.p.) was “no development of the apparent analgesic tolerance”; in series [3] (once daily for 3 days, 3 mg/kg i.p.) it was “no development of the apparent analgesic tolerance”. Moreover, the “effect on postoperative mechanical hypersensitivity” value in series [2] (setting [5]) is recorded as “alleviated hypersensitivity after each systemic injection”. Besides, the “Cohen's d, % withdrawals before and after treatment” value in series [2] (postoperative treatment, paired comparison) is over 20. Further, the “Cohen's d between methadone and d9-methadone groups, % of withdrawals 4 hours post-incision” value in series [2] (preliminary intra-operative treatment) is reported as 2.1. Further, the “effect on neuropathic pain (tactile allodynia)” value in series [3] (3 mg/kg i.p. once daily for 3 days after SNL) is on record as “effectively alleviated this neuropathic pain after each injection; also recorded: effectively inhibited this neuropathic pain after each injection”.

What is called LD50 is the dose expected to kill half of the subjects tested. One may read the Cmax as the maximum level reached in the sampled fluid or tissue. Regarding `CCC(=O)C(CC(C)N(C)C)(c1ccccc1)c1ccccc1` (racemic) [methadone, 6-(dimethylamino)-4,4-diphenylheptan-3-one], the “conditioned place preference” value in the series with naïve mice is listed as “developed CPP; also recorded: relatively weaker conditioned place preference”. Also, the LD50 with Swiss mice is on record as 41 mg/kg. Also, the “rank order of the exposure of the organs to the parent drug” value in series [1] is listed as “kidneys≈lungs>spleen>liver>heart>brain”. Further, the “effect on postoperative mechanical hypersensitivity” value in series [2] (setting [5]) was “unable to reduce”. Moreover, in series [4], the AUC0-8 h amounted to 414 ± 67 ng·h/mL, the “AUC0-∞” value is 436 ± 75 ng·h/mL and the Tmax is on record as 0.08 ± 0^ h. Besides, the Cmax in series [4] (mean ± s.d.) was 521 ± 55 ng/mL.

Take `CCC1=[N+](C)C(C)CC1(c1ccccc1)c1ccccc1` (stereo not drawn) [EDDP, 2-ethylidine-1,5-dimethyl-3,3-diphenylpyrrolidine]: the “rank order of the exposure of the organs to the metabolite” value in series [1] (i.v. administration of the parent drug) is on record as “lungs>liver>kidney≈heart>spleen”.

For `C=CC[N+]1(C)CC[C@]23c4c5ccc(O)c4O[C@H]2C(=O)CC[C@@]3(O)[C@H]1C5` (stereo partly drawn) [NLXM, naloxone methiodide, reference compound], the “effect of NLXM on the relief of postoperative pain by d9-methadone” value in series [2] (NLXM 10 mg/kg i.p. 30 minutes before d9-methadone) is given as “completely blocked the effect of d9-methadone”.

Take `[2H]C([2H])([2H])CC(=O)C(CC(C)N(C)C)(c1ccccc1)c1ccccc1` (stereo not drawn) [d3-methadone, reference compound]: in the series on human hepatic microsomes, the “biotransformation (N-demethylation) rate compared to the non-deuterated substrate” value is “significantly decreased the biotransformation”.

For the compound `CN1CC[C@]23c4c5ccc(O)c4O[C@H]2[C@@H](O)C=C[C@H]3[C@H]1C5` [morphine], in the series with naïve mice, the “conditioned place preference” value is “spent significantly more time in the bright chamber; also recorded: developed CPP”.
